Assay results reported in patent US12029217B2, “Safened compositions comprising pyridine carboxylate herbicides and isoxadifen” (Corteva Agriscience LLC, priority 2018, dated 2024).

Key:
Assay type in all cases: in vivo
[1] = system: Sorghum vulgare (sorghum); assay: Greenhouse postemergence visual injury, sorghum (SORVU); settings: Compound A 40 g/ha, Example 5
Description: (§1) Seeds of the desired test plant species were planted in a 90:10% v/v (volume/volume) mixture of PRO-MIX® BX (Premier Tech Horticulture, Quakertown, PA, USA) and PROFILE® GREENS GRADE™ (Profile Products LLC, Buffalo Grove, IL, USA) planting mixture, which typically has a pH of 5.2 to 6.2 and an organic matter content of at least 50 percent, in plastic pots with a surface area of 103.2 square centimeters (cm^2). When required to ensure good germination and healthy plants, a fungicide treatment and/or other chemical or physical treatment was applied. The plants were grown for 7-36 days (d) in a greenhouse with an approximate 14-hour (h) photo-period which was maintained at about 23° C. during the day and 22° C. during the night. Nutrients and water were added on a regular basis and supplemental lighting was provided with overhead metal halide 1000-Watt lamps as necessary. The plants were employed for testing when they reached the second or third true leaf stage.
(§2) Emulsifiable concentrates of each of each pyridine carboxylate herbicide (Compound A or Compound B) were prepared at 100 grams acid equivalent per liter (g ae/L). An aliquot of each emulsifiable concentrate was placed in a 25 mL glass vial and diluted with an aqueous mixture of 1.25% (v/v) ACTIROB® B esterified rapeseed oil (Bayer Crop Science, Research Triangle Park, NC, USA) or MSO® Concentrate with LECI-TECH® methylated soybean oil (Loveland Products, Loveland, CO, USA) to obtain concentrated stock solutions at the highest application rate for each herbicide, based upon a 12 milliliter (mL) application volume at a rate of 187 liters per hectare (L/ha). The concentrated stock solutions were further diluted with an aqueous mixture of 1.25% v/v ACTIROB® B or MSO® Concentrate with LECI-TECH® to obtain stock solutions at reduced application rates for each herbicide. Spray solutions of the herbicide combinations (Compound A or Compound B plus safener) were prepared by adding weighed amounts or aliquots of the safener to the stock solutions of Compound A or Compound B to form 12-mL spray solutions in two-way combinations.
(§3) The spray solutions were applied to the plant material with an overhead Mandel track sprayer equipped with 8002E nozzles calibrated to deliver 187 L/ha over an application area of 0.503 square meters (m^2) at a spray height of 18 inches (43 centimeters (cm)) above the average plant canopy. Control plants were sprayed in the same manner with the solvent blank. All herbicide (component a) application rates are given as “g ae/ha” and all safener (component b) application rates are given as “g ai/ha.”
(§4) The treated plants and control plants were placed in a greenhouse as described above and watered by sub-irrigation to prevent wash-off of the test compounds. After 20-22 d, the condition of the test plants as compared with that of the control plants was determined visually and scored on a scale of 0 to 100 percent where 0 corresponds to no injury and 100 corresponds to complete kill.

[2] = system: Amaranthus palmeri (glyphosate-resistant Palmer amaranth); assay: Greenhouse postemergence visual injury, glyphosate-resistant Palmer amaranth (AMAPA-Gly); settings: Example 7
Description: as §1, §2
(§5) The spray solutions were applied to the plant material with an overhead Mandel track sprayer equipped with 8002E nozzles calibrated to deliver 187 L/ha over an application area of 0.503 square meters (m^2) at a spray height of 18 inches (43 centimeters (cm)) above the average plant canopy. […]
as §4

[3] = system: Alopecurus myosuroides (blackgrass); assay: Greenhouse postemergence visual injury, blackgrass (ALOMY); settings: Compound A 20 g/ha, Example 6
Description: as §1, §2, §5, §4

[4] = system: Erigeron canadensis (Canada horseweed); assay: Greenhouse postemergence visual injury, Canada horseweed (ERICA)
Description: as §1, §2, §3, §4

[5] = system: Amaranthus retroflexus (pigweed); assay: Greenhouse postemergence visual injury, pigweed (AMARE)
Description: as §1, §2, §3, §4

[6] = system: Triticum aestivum (spring wheat); assay: Greenhouse postemergence visual injury, spring wheat (TRZAS)
Description: as §1, §2, §3, §4

[7] = system: Chenopodium album L. (common lambsquarters); assay: Greenhouse postemergence visual injury, common lambsquarters (CHEAL); settings: Compound A 20 g/ha, Example 6
Description: as §1, §2, §5, §4

[8] = system: Amaranthus tamariscinus (common water hemp); assay: Greenhouse postemergence visual injury, common water hemp (AMATA); settings: Example 7
Description: as §1, §2, §5, §4

[9] = system: Eleusine indica (goosegrass); assay: Greenhouse postemergence visual injury, goosegrass (ELEIN); settings: Example 7
Description: as §1, §2, §5, §4

[10] = system: Digitaria sanguinalis (large crabgrass); assay: Greenhouse postemergence visual injury, large crabgrass (DIGSA)
Description: as §1, §2, §3, §4

[11] = system: Viola tricolor (wild pansy); assay: Greenhouse postemergence visual injury, wild pansy (VIOTR); settings: Compound A 20 g/ha, Example 6
Description: as §1, §2, §5, §4

[12] = system: Setaria faberi (giant foxtail); assay: Greenhouse postemergence visual injury, giant foxtail (SETFA)
Description: as §1, §2, §3, §4

[13] = system: Salsola kali (Russian thistle); assay: Greenhouse postemergence visual injury, Russian thistle (SASKR); settings: Compound A 20 g/ha, Example 1
Description: as §1, §2, §5, §4

[14] = system: Cyperus esculentus (nutsedge); assay: Greenhouse postemergence visual injury, nutsedge (CYPES)
Description: as §1, §2, §3, §4

[15] = system: Abutilon theophrasti (velvetleaf); assay: Greenhouse postemergence visual injury, velvetleaf (ABUTH); settings: Compound A 20 g/ha, Example 6
Description: as §1, §2, §5, §4

[16] = system: Kochia scoparia (herbicide-resistant kochia); assay: Greenhouse postemergence visual injury, herbicide-resistant kochia (KCHSC-R); settings: Compound A 20 g/ha, Example 6
Description: as §1, §2, §5, §4

[17] = system: Lolium multiflorum (Italian ryegrass); assay: Greenhouse postemergence visual injury, Italian ryegrass (LOLMU)
Description: as §1, §2, §3, §4

[18] = system: Sorghum halepense (Johnson grass); assay: Greenhouse postemergence visual injury, Johnson grass (SORHA)
Description: as §1, §2, §3, §4

Kochia scoparia (kochia) = assay: Greenhouse postemergence visual injury, kochia (KCHSC); settings: Compound A 20 g/ha, Example 6
Description: as §1, §2, §5, §4

Structure (SMILES): N#CCOC(=O)c1nc(-c2ccc3cc[nH]c3c2F)c(F)c(N)c1Cl [Compound A, cyanomethyl 4-amino-3-chloro-5-fluoro-6-(7-fluoro-1H-indol-6-yl)pyridine-2-carboxylate]
- % visual injury, Ob [1]: 50%
- % visual injury, Ob ([2]; Compound A 10 g/ha): 100%
- % visual injury, Ob ([2]; Compound A 20 g/ha): 100%
- % visual injury, Ob [3]: 0%
- % visual injury, Ob ([4]; Compound A 10 g/ha, Example 7): 90%
- % visual injury, Ob ([4]; Compound A 20 g/ha, Example 6): 95%
- % visual injury, Ob ([4]; Compound A 20 g/ha, Example 7): 95%
- % visual injury, Ob ([5]; Compound A 20 g/ha, Example 6): 93%
- % visual injury, Ob ([5]; Compound A 40 g/ha, Example 4): 100%
- % visual injury, Ob ([5]; Compound A 40 g/ha, Example 5): 100%
- % visual injury, Ob ([6]; Compound A 20 g/ha, Example 1): 25%
- % visual injury, Ob ([6]; Compound A 40 g/ha, Example 2): 23%
- % visual injury, Ob ([6]; Compound A 40 g/ha, Example 4): 30%
- % visual injury, Ob [7]: 88%
- % visual injury, Ob ([8]; Compound A 10 g/ha): 98%
- % visual injury, Ob ([8]; Compound A 20 g/ha): 100%
- % visual injury, Ob ([9]; Compound A 10 g/ha): 73%
- % visual injury, Ob ([9]; Compound A 20 g/ha): 93%
- % visual injury, Ob ([10]; Compound A 10 g/ha, Example 7): 28%
- % visual injury, Ob ([10]; Compound A 20 g/ha, Example 6): 30%
- % visual injury, Ob ([10]; Compound A 20 g/ha, Example 7): 40%
- % visual injury, Ob [11]: 30%
- % visual injury, Ob ([12]; Compound A 10 g/ha, Example 7): 85%
- % visual injury, Ob ([12]; Compound A 20 g/ha, Example 6): 65%
- % visual injury, Ob ([12]; Compound A 20 g/ha, Example 7): 95%
- % visual injury, Ob [13]: 60%
- % visual injury, Ob ([14]; Compound A 20 g/ha, Example 6): 30%
- % visual injury, Ob ([14]; Compound A 40 g/ha, Example 4): 73%
- % visual injury, Ob ([14]; Compound A 40 g/ha, Example 5): 73%
- % visual injury, Ob [15]: 95%
- % visual injury, Ob [16]: 90%
- % visual injury, Ob ([17]; Compound A 10 g/ha, Example 7): 18%
- % visual injury, Ob ([17]; Compound A 20 g/ha, Example 6): 5%
- % visual injury, Ob ([17]; Compound A 20 g/ha, Example 7): 60%
- % visual injury, Ob ([18]; Compound A 10 g/ha, Example 7): 10%
- % visual injury, Ob ([18]; Compound A 20 g/ha, Example 6): 0%
- % visual injury, Ob ([18]; Compound A 20 g/ha, Example 7): 60%
- % visual injury, Ob (Kochia scoparia (kochia)): 97%
